The subject of data set [1] is LoVo colorectal adenocarcinoma cell line. The settings on record: three day cell proliferation assay; cited from earlier work.
Data set [2] relates to OVCAR-3 ovary adenocarcinoma cell line. Conditions: three day cell proliferation assay; cited from earlier work.
For data set [3], the system named is A-172 glioblastoma cell line. The settings on record: three day cell proliferation assay; cited from earlier work.
In data set [4] the test system is HCT 116 colon carcinoma cell line. The data set can be described thus: Cell proliferation assay (ATPlite), HCT 116. It is filed as cell-based, human. Conditions: for Eff. (%): HCT 116, five days, maximum inhibitory effect, average of three experiments. As for the experimental part:
(§1) Cell proliferation assays were carried out as described using ATPlite 1step™ (Perkin Elmer, Groningen, The Netherlands). Exposure time was 72 or 120 hours as indicated in the Legends to the Figures. Percentage growth was calculated, relative to the growth of unexposed cells, and relative IC50s were fitted using a four-parameter logistics curve (XLfit 5.3, IDBS). For Figure 4A and 7 dose response curves were redrawn in Prism. To compare the inhibitory potency of compounds in proliferation assays with HCT 116 parental and tetraploid clones, pIC50 (−^10logIC50) values were compared in three independent experiments. A two-tailed Student's t-test was performed to determine whether differences in sensitivity (ΔpIC50) were statistically significant. Caspase 3/7 activity of cancer cells was measured using Caspase-Glo 3/7 Assay kit (cat no. G8093, Promega, Madison USA). Viability of T-ALL cell samples was determined using ATPlite and exposure of 72 hours as described previously.
(ATP-based viability assays read luminescence as a measure of living cells.)

For data set [5], the system named is post-tetraploid HPT2 cells. Put plainly: Cell proliferation assay, post-tetraploid HPT2. Format: cell-based, human. Conditions: HPT2, five days; for Efficacy (%): average of three experiments; for IC50: geometric average of three experiments. Here is the method: (§2) Cancer cell lines and hTERT-RPE1 retinal pigment epithelial cells were purchased from the American Type Culture Collection (ATCC) (Manassas, VA, U.S.A.) from 2011 to 2014 [41] and cultured in ATCC-recommended media. All experiments were carried out within nine passages of the original vials from ATCC who authenticated the cancer cell lines by short tandem repeat analysis. We verified the mutant status of seven frequently mutated cancer genes (i.e., BRAF, CDKN2A, CTNNB1, EGFR, KRAS, PIK3CA and TP53) by full exome or targeted sequencing. Sequencing results were compared to COSMIC version 75 of the Genomics of Drug Sensitivity in Cancer data base and provided additional authentication of the identity of the cell lines. The isolation and characterization of post-tetraploid clones from HCT 116 has been described previously. The mutation status of the CDKN2A, CTNNB1, KRAS and PIK3CA genes were confirmed by sequence analysis in both the HCT 116 parental cell line and post-tetraploid clones. All experiments were carried out within nine passages of the original cell stocks that were transferred from the Max Planck Institute of Biochemistry (Martinsried, Germany) to Netherlands Translational Research Center.
as §1

For data set [6], the system named is HCT 116 vs HPT1, -2 and -4. The data set can be described thus: Drug sensitivity analysis, HCT116 diploid versus tetraploids. Format: cell-based, human. Conditions: for Δeff. (%) / Phenotype (potency): HCT 116 vs HPT1, -2 and -4; for Phenotype (efficacy): HCT 116 vs HPT1, -2 and -4, based on % effect; for Phenotype (potency): 'resistant' indicates that tetraploids are resistant; for ΔpIC50: average log shift in sensitivity between parental and tetraploids. Here is the method: as §1

For data set [7], the system named is post-tetraploid HPT4 cells. Put plainly: Cell proliferation assay, post-tetraploid HPT4. Format: cell-based, human. Conditions: HPT4, five days; for Efficacy (%): average of three experiments; for IC50: geometric average of three experiments. As for the experimental part:
as §2, §1

The target in data set [8] is T1, full-length Aurora B (Homo sapiens, UniProt Q96GD4).
T1 construct: to the kinase domain of TTK and full-length Aurora B; purchased Carna Biosciences, Inc., Kobe, Japan; host or cells: Sf9 insect cells
The data set can be described thus: Surface plasmon resonance binding kinetics, Aurora B. The settings on record: SPR, geometric average. The source says:
(§3) Originally, the compound was identified in a phenotypic screen for molecules that can induce stem-cell like phenotypes. Later this property was attributed to its ability to inhibit the mitotic kinase Aurora B [39].

Data set [9] has as its system MG-63 osteosarcoma cell line. The settings on record: three day cell proliferation assay; cited from earlier work.
The test system of data set [10] is post-tetraploid HPT1 cells. Put plainly: Cell proliferation assay, post-tetraploid HPT1. It is filed as cell-based, human. Conditions: HPT1, five days; for Efficacy (%): average of three experiments; for IC50: geometric average of three experiments. Here is the method:
as §2, §1

For data set [11], the system named is 66 cancer cell lines (44 cell lines). More on the design: method as in earlier work. The settings on record: cited from earlier work.
Data set [12] concerns DoTc2 4510 cervix carcinoma cell line. The settings on record: three day cell proliferation assay; cited from earlier work.
Data set [13] concerns HCT 116 colon carcinoma cell line. Conditions: three day cell proliferation assay; cited from earlier work.
The conditions of data set [14]: mouse, in vivo; cited from earlier work.
Data set [15] concerns OVCAR-3 ovary adenocarcinoma cell line. Put plainly: Cell proliferation assay (ATPlite), OVCAR-3. Format: cell-based, human. The settings on record: Homo sapiens, 120 h, 5 day proliferation assay. As for the experimental part: as §1
For data set [16], the system named is MG-63 osteosarcoma cell line. Put plainly: Cell proliferation assay (ATPlite), MG-63. It is filed as cell-based, human. Conditions: Homo sapiens, 120 h, 5 day proliferation assay. Here is the method:
as §1

For data set [17], the target named is T2, TTK kinase domain (Homo sapiens, UniProt P33981).
T2 construct: using bacterially expressed TTK kinase domain and Sf9 insect cell-expressed Aurora B; purchased Carna Biosciences, Inc., Kobe, Japan
T2 sequence (P33981 525-791 limits assumed): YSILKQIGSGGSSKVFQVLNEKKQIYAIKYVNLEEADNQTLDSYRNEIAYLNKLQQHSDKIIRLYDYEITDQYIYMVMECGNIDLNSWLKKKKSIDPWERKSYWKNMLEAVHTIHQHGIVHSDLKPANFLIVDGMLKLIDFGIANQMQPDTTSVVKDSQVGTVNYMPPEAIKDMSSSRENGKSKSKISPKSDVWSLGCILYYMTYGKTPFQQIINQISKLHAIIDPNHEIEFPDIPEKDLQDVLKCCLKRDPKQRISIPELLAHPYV
The data set can be described thus: Surface plasmon resonance binding kinetics, TTK. Conditions: SPR, geometric average.
Description: as §3
In general terms: In SPR one partner is held on a chip, and binding of the other changes the refractive index at the surface.

For data set [18], the system named is patient-derived colorectal carcinoma organoids. The data set can be described thus: Organoids drug sensitivity and viability assay. It is filed as cell-based, human. Conditions: Homo sapiens. Here is the method:
The establishment and characterization of the human colon cancer organoids has been described. The organoids were cultured in drops of Geltrex LDEV-Free Reduced Growth Factor Basement Membrane Matrix (Gibco, cat no. A1413202) in DMEM/F12 medium (Thermo), supplemented with 1% (v/v) penicillin/streptomycin (Gibco), 1% Hepes buffer, pH7.5, 1% L-glutamine (Gibco), 1 μg/mL R-spondin (Sigma), 100 ng/mL Noggin (Peprotech), B27 vitamin A-free (Invitrogen, cat no. 12587010), 1 mM n-acetyl cysteine (Sigma), 10 mM nicotinamide (Sigma), 50 ng/mL EGF (BD Biosciences), 500 nM A83-01 (Tocris), 10 μM SB202190 (Sigma), 10 μM Y-27632 (Sigma) and 10 nM Prostaglandin E2 (Cayman). Medium was refreshed every four days and organoids were splitted by treatment with TryPLE Express (Gibco, cat. no. 12604013).
Organoids were dissociated by TryPLE Express treatment and filtered using a 40 μm nylon cell strainer (Falcon). The organoids were re-suspended in Geltrex at a density of 250,000 cells/mL and seeded in the wells of 96-well plates (Corning, cat no. 3903) at 10 μl per well. Compounds were added four days after plating and 72 hours later viability was determined using Cell-Titer Glo 3D Cell Viability Assay (Promega, Madison USA). Experiments were performed in three biological replicates and technical triplicates were averaged per experiment.

Data set [19] has as its system DoTc2 4510 cervix carcinoma cell line. Put plainly: Cell proliferation assay (ATPlite), DoTc2 4510. Format: cell-based, human. The settings on record: Homo sapiens, 120 h, 5 day proliferation assay. Here is the method:
as §1

The test system of data set [20] is A-172 glioblastoma cell line. The data set can be described thus: Cell proliferation assay (ATPlite), A-172. Format: cell-based, human. Conditions: Homo sapiens, 120 h, 5 day proliferation assay. Here is the method:
as §1

Like-named read-outs stand apart in the source and are kept apart here.

These results are taken from PMC5503534, “Stable aneuploid tumors cells are more sensitive to TTK inhibition than chromosomally unstable cell lines” (Oncotarget, 2017).

T1 sequence (Q96GD4 whole entry, the tested form may be a part): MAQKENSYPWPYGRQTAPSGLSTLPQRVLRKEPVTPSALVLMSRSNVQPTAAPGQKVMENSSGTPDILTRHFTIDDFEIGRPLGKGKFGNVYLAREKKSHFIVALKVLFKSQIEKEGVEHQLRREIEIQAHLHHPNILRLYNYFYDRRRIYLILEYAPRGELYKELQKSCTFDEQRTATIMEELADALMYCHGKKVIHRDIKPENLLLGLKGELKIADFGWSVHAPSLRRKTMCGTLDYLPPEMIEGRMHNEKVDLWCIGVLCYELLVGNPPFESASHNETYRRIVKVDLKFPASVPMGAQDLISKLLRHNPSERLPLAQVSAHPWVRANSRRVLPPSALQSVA

For `Cc1cc(N2CCOCC2)ccc1Nc1nc(NC2CCCCC2)c2[nH]cnc2n1` [MPI-047605], the IC50 in [1] is 220 nM; in [2], 7330 nM; in data set [3], 198 nM; in [4] (HCT 116 near-diploid, five days, geometric average of three experiments (Suppl. Table 2A)) it was 233 nM; in data set [5], 199 nM; in data set [7] it was 191 nM. Further, the IC50 in data set [9] was 899 nM; in [10] it was 208 nM; in [11] (3 days, geometric average in 44 cell lines) it was 448 nM; in [12], 8390 nM; in data set [13], 234 nM. In addition, in [4], the “Eff. (%)” value was determined as 72%. In addition, the “Efficacy (%)” value stood at 46% in [5], 51% in [7] and 52% in data set [10]. The “Δeff. (%)” value in data set [6] was −22%. For the same molecule, the “Phenotype (efficacy)” value in data set [6] is listed as “resistant”. Moreover, the “Phenotype (potency)” value in [6] is listed as “sensitive”. For the same molecule, the ΔpIC50 in data set [6] is given as −0.07. The same molecule returned a ka in data set [8] of 9550 M⁻¹ s⁻¹. The kd in [8] turned out to be 0.291 s⁻¹.
As to `CC(=O)O[C@@]12CO[C@@H]1C[C@H](O)[C@@]1(C)C(=O)[C@H](O)C3=C(C)[C@@H](OC(=O)[C@H](O)[C@@H](NC(=O)OC(C)(C)C)c4ccccc4)C[C@@](O)([C@@H](OC(=O)c4ccccc4)[C@H]21)C3(C)C` [docetaxel], the IC50 is 8 nM in data set [1]; 4 nM in [2]; 3 nM in [3]; 1 nM in data set [9]; 3 nM in data set [12]; 2 nM in data set [13]. Also, the “effect on bone marrow or blood cell count (hematological toxicity)” value in data set [14] is reported as “hematological toxicity was seen”.
Take `c1nc2nc(Nc3ccc(N4CCOCC4)cc3)nc(NC3CCCCC3)c2[nH]1` [reversine]: the IC50 in data set [15] amounted to 441 nM; in data set [16] it was 434 nM; in data set [4] (Homo sapiens, HCT-116, 120 h, 5 day proliferation assay, HCT 116 (Suppl. Table 1)), 175 nM; in [4] (Homo sapiens, HCT-116, 120 h, HCT 116 near-diploid, five days, geometric average of three experiments (Suppl. Table 2A)) it was 242 nM; in data set [5] (Homo sapiens, 120 h) it was 253 nM; in [18] (72 h, organoid p14, three days, read-out: IC50), 493 nM. The IC50 was 468 nM in data set [18] (72 h, organoid p14, three days, read-out: pIC50 (converted)); 285 nM in data set [18] (72 h, organoid p18, three days, read-out: IC50); 269 nM in data set [18] (72 h, organoid p18, three days, read-out: pIC50 (converted)); 757 nM in data set [18] (72 h, organoid p28, three days, read-out: IC50); 646 nM in [18] (72 h, organoid p28, three days, read-out: pIC50 (converted)); 437 nM in data set [18] (All organoids, geometric average, read-out: pIC50 (converted)). For the same molecule, the IC50 in [19] is 416 nM; in data set [7] (Homo sapiens, 120 h), 159 nM; in data set [10] (Homo sapiens, 120 h), 208 nM; in data set [20], 158 nM; in [11] (5 days, geometric average in 66 cancer cell lines), 239 nM. Moreover, the kd in data set [17] turned out to be 8.86e-05 s⁻¹; in [8], 0.00484 s⁻¹. Moreover, the “Eff. (%)” value in data set [4] amounted to 77%. Also, the “Efficacy (%)” value in data set [5] amounted to 44%; in data set [7] it was 33%; in data set [10], 58%. For the same molecule, the “Δeff. (%)” value in [6] was −32%. Besides, the “Phenotype (efficacy)” value in data set [6] is on record as “resistant”. Besides, the “Phenotype (potency)” value in [6] is “sensitive”. In addition, the ΔpIC50 in data set [6] was −0.08.
